Source: US9493453B2, “Piperazinyl pyrimidine derivatives, preparation method and use thereof” (INSTITUTE OF PHARMACOLOGY AND TOXICOLOGY ACADEMY OF …, priority 2012, dated 2016)
Where two headings read alike, the source gives them in different places.

What was measured:
CCR4 receptor = molecular target: T1, CCR4 receptor (Homo sapiens, UniProt P51679); assay: Inhibition of MDC/TARC/C27 mediated chemotactic response of CCR4-transfected HEK293 cells (Boyden chamber); type: cell-based; conditions: chemotactic inhibition rate, compound 1 μM, HEK293 cells transfected with pCDI-CCR4, 5 hours
T1 construct: cDNA fragments of receptor open reading frame were respectively inserted into pcDI; expressed in transfected cells; host or cells: HEK293 cells, transiently transfected by electroporation with pCDI-CCR4
T1 sequence (P51679 1-360): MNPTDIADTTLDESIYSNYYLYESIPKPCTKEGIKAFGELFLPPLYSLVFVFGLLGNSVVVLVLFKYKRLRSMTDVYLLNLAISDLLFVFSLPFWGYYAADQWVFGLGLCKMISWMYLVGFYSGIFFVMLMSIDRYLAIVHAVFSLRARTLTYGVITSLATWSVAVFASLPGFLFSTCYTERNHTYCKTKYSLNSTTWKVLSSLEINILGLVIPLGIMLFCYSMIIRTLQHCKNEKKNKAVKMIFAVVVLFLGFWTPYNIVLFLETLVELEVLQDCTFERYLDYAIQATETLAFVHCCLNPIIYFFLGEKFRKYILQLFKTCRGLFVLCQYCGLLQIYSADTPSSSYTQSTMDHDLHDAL
Description: Whether or not compounds 1-14 of the present invention can inhibit MDC (Peprotech) mediated chemotactic response of HEK293 cells was studied by using Boyden chamber (Neuro Probe, Inc.).
1. Construction of Receptor Expression Plasmid:
cDNA fragments including human chemokine receptor open reading frame were obtained by the following method: CCR4 receptor was cloned from a cDNA library of K562 cells through polymerase chain reaction (PCR). Primers were designed according to the sequence of Gen-Bank™ accession: CCR4 (NM_005508.2). cDNA fragments of receptor open reading frame were respectively inserted into pcDI (vector transformed in the chamber: eukaryotic expression vector obtained by replacing a BglII KpnI fragment of pcDNA3 (Invitrogen Corporation) plasmid with a BglII KpnI fragment of pCI (Promega Corporation) plasmid) expression vector so as to make them effectively express in HEK293 cells.
HEK293 cells were cultured in RPMI 1640 (Life Technologies, Inc.) containing 10% heat-inactivated fetal bovine serum, 100 U/mL penicillin, 100 μg/mL streptomycin. Each 4×10^6 HEK293 cells/400 μL were transiently transfected through electroporation with 15 μg chemokine receptor expression plasmids, under the condition of 120 V for 20 ms, the instrument used being electric pulse generator (Electro Square porator ECM 830, BTX, San Diego, Calif.). After 36-48 hr, chemotactic assay was carried out.
3. The Inhibitory Effect on MDC/TARC/C27 Mediated Chemotactic Response of HEK293 Cells
Chemokines MDC/TARC/C27 were diluted to 10 ng/mL with RPMI1640 (Life Technologies, Inc.), 0.1% BSA (Sigma), and added to lower holes in a 48-hole chemotactic chamber, 27.5 μL each hole. Eukaryotic expression plasmids pCDI-CCR4 were electrically shifted to HEK293 cells, and cultured normally for 36 hr. The cells were digested, re-suspended with RPMI1640, 10% FBS (Life Technologies, Inc.), and subjected to rotary incubation at 37° C. for 6.5 hours. The cells were washed twice with RPMI1640, and suspended in RPMI1640, 0.1% BSA, with a final concentration of 1×10^6/mL. The cells and the candidate compound dissolved in DMSO (Sigma) were subjected to rotary incubation at room temperature for half an hour, the final concentration of the candidate compound being 1 μM, and the final concentration of DMSO being 0.1%, and then added to upper holes in the chemotactic chamber, 55 μL each hole. The two layers were spaced by a polycarbon membrane with pore size of […] (Neuro Probe, Inc.). The chemotactic reaction was carried out in 5% CO2 at 37° C. for 5 hours. There were three groups of control in the experiment, wherein the first group was positive control, in which the transfected cells were directly added to upper holes without incubated with the candidate compound, while chemokines MDC/TARC/C27 were added to lower holes. The second group was negative control, in which the transfected cells were directly added to upper holes without incubated with the candidate compound, while RPMI1640, 0.1% BSA were added to lower holes. The third group was solvent DMSO control of the candidate compound, in which the transfected cells and DMSO were incubated at room temperature, the final concentration of DMSO being 0.1%, while chemokines MDC/TARC/C27 were added to lower holes. After completion of the chemotactic reaction, the membrane was removed, fixed and stained, and, at 400× high magnification, five horizons were randomly selected to count the cells, which were then summed. The ratio of the sum of the numbers of cells in five horizons at high magnification in each experimental group to the sum of the numbers of cells in five horizons at high magnification in the negative control group is obtained as Chemotactic Index (CI). Chemotactic inhibition rate was calculated as follows: […]

mice rhinitis model = assay: Mice rhinitis model experiment (OVA-sensitized BALB/c mice); type: in vivo; conditions: Example 8 compound 1 μg/Kg
Method: Mice Rhinitis Model Experiment
Female BALB/c mice (6-8 weeks) were sensitized with chicken ovalbumin (OVA, Sigma-Aldrich, St Louis, Mo., USA). The compound of the present invention (for example, the compound of Example 8) was administered to nasal mucosa, at a dose 1 μg/Kg. Glucocorticoid hormonal drug budesonide, a first-line clinical drug, was used as positive control, at a dose 1.28 mg/Kg. Meanwhile, there were provided a normal group wherein the mice were not sensitized and not administered, and an OVA group wherein the mice were sensitized and not administered. The following five indicators were detected: the number of sneezing, the number of nasal scratching within 10 min after administration; IL-4 level in bronchoalveolar lavage fluid; serum IgE level; lung tissue inflammation score. Lung tissue inflammation score was rated according to a single blind method: inflammation was divided into four levels from mild to severe, marked as 0-3 scores: 0 representing no detected inflammation; 1 representing occasional inflammatory cells being visible; 2 representing bronchus or blood vessel being surrounded by eosinophils, but less than five cell layers; 3 representing bronchus or blood vessel being surrounded by a large number of eosinophils, with 5 or more cell layers.

[1] = OVA-sensitized female BALB/c mice, nasal mucosa, budesonide 1.28 mg/Kg, within 10 min after administration
[2] = versus OVA-sensitized group, budesonide 1.28 mg/Kg

inhibition at 1 µM (CCR4 receptor; chemokine C27 10 ng/mL, read-out: C27 inhibition rate): 69.8% | inhibition at 1 µM (CCR4 receptor; chemokine MDC 10 ng/mL, read-out: MDC inhibition rate): 79.2% | inhibition at 1 µM (CCR4 receptor; chemokine TARC 10 ng/mL, read-out: TARC inhibition rate): 60.4%
Structure (SMILES): O=C([C@H]1CCCCN1)N1CCN(c2nc(Cl)cc(NCc3ccc(Cl)cc3Cl)n2)CC1 [Compound 8, (R)-{4-{4-chloro-6-[(2,4-dichlorobenzyl)amino]pyrimidin-2-yl}piperazin-1-yl}(piperidin-2-yl)methanone]
IL-4 (mice rhinitis model; IL-4 level in bronchoalveolar lavage fluid, OVA-sensitized mice, budesonide 1.28 mg/Kg): 3.7 ± 0.3 pg/mL | Nasal scratching (mice rhinitis model; [1]): 8.0 ± 0.6 times/10 mins | Sneezing (mice rhinitis model; [1]): 29.0 ± 3.5 times/10 mins | Inflammation score (mice rhinitis model; lung tissue inflammation score 0-3, single blind, OVA-sensitized mice, budesonide 1.28 mg/Kg): 2.2 ± 0.4 | IgE (mice rhinitis model; serum IgE level, OVA-sensitized mice, budesonide 1.28 mg/Kg): 2861 ± 49 ng/mL | serum IgE level (result in words) (mice rhinitis model; versus OVA-sensitized and normal control groups, budesonide 1.28 mg/Kg): higher than that of the normal control group | IL-4 level in bronchoalveolar lavage fluid (result in words) (mice rhinitis model; [2]): significantly lower than that of the OVA-sensitized group | lung tissue inflammation score (result in words) (mice rhinitis model; [2]): lower than that of the OVA-sensitized group | number of sneezing (result in words) (mice rhinitis model; [2]): could significantly reduce the number of sneezing | number of nasal scratching (result in words) (mice rhinitis model; versus other groups): lower than that of any of other groups
